Laboratory results reported in PMC10600239, “Selective MCL-1 inhibitor ABBV-467 is efficacious in tumor models but is associated with cardiac troponin increases in patients” (Communications Medicine, 2023).

How the values were obtained:
[1] = test system: SKBR3 cells; test: Cell viability of parental and BAK-, BAX-, BCL2L11-, PMAIP1-deficient SKBR3 cells (CellTiter-Glo); type: cell-based; settings: SKBR3, 24 h
Method: Fig. 2 Apoptosis induced by ABBV-467 is mechanism based and induces cell death in MCL-1-dependent cell lines after short target engagement periods. H929 cells were treated with ABBV-467 in the presence or absence of the pan-caspase inhibitor z-VAD-fmk (50 µM) and the impact on caspase-3/7 activation (a), mitochondrial membrane potential (ΔΨm; b), and apoptosis (c) determined. Alternatively, BAK-deficient SKBR3 cells were treated with ABBV-467 for 24 h and the impact on cell viability compared with the parental cell line, determined by CellTiter-Glo. Inset depicts a western blot of BAK and BAX expression in SKBR3 cell variants using GAPDH as a loading control. Each of the 3 proteins were probed on separate blots (d). Data in (a–d) are presented as the mean ± standard error of the mean. H929 and AMO-1 cells were treated with ABBV-467 at the indicated concentrations and the impact on caspase-3/7 activation and viability (DRAQ7-positive) cells determined over time by Incucyte®. Data are presented as the mean ± standard deviation (e). H929 or AMO-1 cells were cultured in media containing 10% human serum and treated with ABBV-467 for the indicated contact times. Cells were subsequently washed 3 times with drug-free media and incubated in drug-free media for the remainder of the 24-h treatment period at 37 °C before cell viability was determined by CellTiter-Glo. Mean EC50 and EC90 values were determined from the resulting dose-response curves from at least 3 independent experiments, each assessed in quadruplicate, and depict the mean ± standard error of the mean. Presented ABBV-467 dose-response curves in H929 and AMO-1 cells were compiled from at least 3 independent experiments (f).
Supplementary Fig. S5: SKBR3 cells deficient in BAX, BAK , PM AIP 1 (gene encoding the protein NOXA),
BCL 2L 11 (gene encoding the protein BIM) were treated with ABBV-467 for 24 hours and the impact on
cell death compared to the parental cell line determined by CellTiter- Glo™.

[2] = test system: NCI-H929 xenografts; test: NCI-H929 xenograft efficacy (tumor volume, survival); type: in vivo; settings: single dose […]
Method: All animal studies were conducted in accordance with the guidelines approved by the Institutional Animal Care and Use Committees of AbbVie. The research protocol was approved by In Vivo Pharmacology at AbbVie prior to study initiation but was not publicly registered or disclosed. Female C.B-17 SCID-beige mice (AMO-1, OPM-2, NCI-H929, and OCI-AML2 xenografts) and female NSG mice (MV4-11-Red.Fluc systemic) were purchased from Charles River Laboratories (Wilmington, MA). Animals were housed in a light cycle-controlled room with HEPA filtration at 22 °C. Animals had nesting and climbing cage topper as the primary environmental enrichment. […] All xenograft trials were conducted using 5 to 10 mice per group, and all mice were ear tagged and monitored individually throughout the studies. […] Tumor burden in the systemic MV4-11-Red.Fluc experiment was measured using an IVIS® spectrum from PerkinElmer by taking the total photon flux of the entire dorsal side of an individual mouse. […]
For in vivo studies, maximal tumor growth inhibition (TGI) was calculated as the greatest treatment response using the following equation: Maximal TGI = (1 − mean tumor volume of the treated group/mean tumor volume of the vehicle control group) × 100. […] Data from experiments in vivo were analyzed using the student’s t-test for TGI values and the Mann–Whitney U test for TGD using Excel and GraphPad Prism. […]

Cc1c(Cl)c2c(Cl)c(C)c1-c1c(-c3ccc(F)cc3)sc3ncnc(c13)O[C@@H](C(=O)O)Cc1cc(ccc1OCc1ccnc(-c3ccc(OC[C@H]4COCCO4)cc3)n1)OC[C@@H](CN1CCN(C)CC1)O2 [ABBV-467]
effect of BAK deletion on activity [1]: completely inhibited
effect of deletion of BAX, BIM or NOXA genes on activity [1]: did not impact activity
mice with tumors remaining below 1000 mm^3 until 250 days post-treatment [2]: 40%
